Laboratory results as given in patent US12600732B2, “Bifunctional compounds for degrading BTK via ubiquitin proteosome pathway” (NURIX THERAPEUTICS, INC., priority 2019, dated 2026).
Where “and” joins values, the source holds several entries; their conditions need not be identical. Equal values may be shown once.

Assays:
Aiolos = biological target: T1, Aiolos (Homo sapiens, UniProt Q96SW2+Q9UKT9); test: Aiolos degradation in Mantle Cell Lymphoma lines (flow cytometry); format: cell-based; conditions: for DC50: treatment time 24 h; for IMiD activity (degradation of IMiD neo-substrates Ikaros and Aiolos): Mantle Cell Lymphoma lines Mino and Rec-1
T1 construct: endogenous in cells; host or cells: Mino, Rec-1
Description: Ikaros and Aiolos Degradation in Mantle Cell Lymphoma Lines (Ikaros and Aiolos Flow Cytometry)
This example evaluates the IMiD activity of CTMs in cellular models of Mantle Cell Lymphoma (MCL). […] These assays are to determine potency of CTMs for degrading IMiD neo-substrates in cellular models of MCL and to generate data to inform efficacy studies in MCL xenografts.

BTK [1] = biological target: T2, BTK (Mus musculus, UniProt P35991); test: Mouse DRF PD, BTK remaining in B cells; format: in vivo; conditions: blood, 24 h after previous dose
T2 construct: from tissue; host or cells: mouse blood B cells / splenocytes (CD-1 or BALB/c)
Procedure: A method of determining the pharmacodynamic profile of BTK degraders was performed by dosing either CD-1 or BALB/c mice with CTM. The CTM was prepared in a suitable formulation and was administered via oral gavage (PO) at a suitable dose level and frequency as informed by prior pharmacokinetic and tolerability studies. Following administration of CTM, BTK levels in blood or splenocytes are measured using flow cytometry or HTRF. For assessment of BTK levels via flow cytometry, either whole blood or splenocytes were first treated with ACK RBC lysis buffer to facilitate lysing of red blood cells. Remaining cells were then stained with fluorophore-conjugated antibodies against CD45, TCR beta and CD45R (B220). Cell pellets were washed with 1×PBS, fixed, and permeabilized for twenty-four hours with Foxp3/Transcription Factor Fixation/Permeabilization Kit. Cells were then stained intracellularly with unconjugated BTK antibody and detected with a fluorophore-conjugated secondary antibody. Stained cells were run on an Attune N×T Acoustic Focusing Flow Cytometer (Thermo-Fisher A29004), and data was analyzed using FlowJo (v10.5.3) and GraphPad Prism (v7.00) software. Lymphocytes were gated for B cells defined as CD45+ TCR beta−B220+ and T cells as CD45+ TCR beta+B220−. The BTK geometric mean fluorescence intensity (MFI) was calculated for B and T cells. Percent BTK degradation for each compound-treated sample was calculated using the equation described below: % Degradation=100*(Treated sample B cell BTK MFI-treated sample T cell BTK MFI)/Vehicle B cell BTK MFI-Vehicle T cell BTK MFI)
This example evaluates potency and tolerability of BTK CTMs following multiple, consecutive days of dosing and evaluates potency of compounds for BTK degradation.
The data in the table below is from a study in which animals were dosed daily with the designated oral dose. Analysis for BTK levels was performed twenty-four hours following the previous dose.

BTK [2] = biological target: T2, BTK; test: In vivo degradation of BTK in mouse PD experiments with oral dosing
In short: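 CD-1 or BALB/c mice dosed by oral gavage, screens at 90 mg/kg for 6 h, later at lower doses/longer times. Blood or splenocyte BTK measured by intracellular flow cytometry (or HTRF); % degradation from B-cell minus T-cell BTK geometric MFI, relative to vehicle.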

[3] = Compound plasma exposure in cyno DRF study; format: in vivo; conditions: cynomolgus monkey, po
Procedure: This example evaluates compound plasma concentration which results in in vivo BTK and/or Aiolos degradation in cyno. The data in the table below is from a study in which animals were dosed daily with the designated oral dose. Analysis for compound concentration in plasma was performed twenty-four hours following the previous dose.

[4] = system: TMD8 BTK C481S tumor cells; test: TMD8 BTK C481S xenograft efficacy study; format: in vivo, mouse; conditions: PO
Procedure: […] Tumor growth inhibition (% TGI) were calculated on the final day of measurement using the equation [1−(T−T0/C−T0)]×100, where T and C represent the mean size of tumors in the treated (T) and control (C) groups, and T0 refers to the tumor size at randomization.
This example examines the activity of various BTK CTMs in relevant disease models, including the WT and C481S TMD8 model, which models B cell malignancies with/without inhibitor-driven BTK mutations at C481.

TEC kinase = biological target: T3, TEC kinase (Homo sapiens, UniProt P42680); test: TEC kinase degradation in K562 cells (western blot); format: cell-based; conditions: FIGS. 13A-13D; for effects on TEC kinase levels: four hours, 0.026-2000 nM, western blot
T3 construct: endogenous in cells; host or cells: K562
T3 sequence (P42680 1-631): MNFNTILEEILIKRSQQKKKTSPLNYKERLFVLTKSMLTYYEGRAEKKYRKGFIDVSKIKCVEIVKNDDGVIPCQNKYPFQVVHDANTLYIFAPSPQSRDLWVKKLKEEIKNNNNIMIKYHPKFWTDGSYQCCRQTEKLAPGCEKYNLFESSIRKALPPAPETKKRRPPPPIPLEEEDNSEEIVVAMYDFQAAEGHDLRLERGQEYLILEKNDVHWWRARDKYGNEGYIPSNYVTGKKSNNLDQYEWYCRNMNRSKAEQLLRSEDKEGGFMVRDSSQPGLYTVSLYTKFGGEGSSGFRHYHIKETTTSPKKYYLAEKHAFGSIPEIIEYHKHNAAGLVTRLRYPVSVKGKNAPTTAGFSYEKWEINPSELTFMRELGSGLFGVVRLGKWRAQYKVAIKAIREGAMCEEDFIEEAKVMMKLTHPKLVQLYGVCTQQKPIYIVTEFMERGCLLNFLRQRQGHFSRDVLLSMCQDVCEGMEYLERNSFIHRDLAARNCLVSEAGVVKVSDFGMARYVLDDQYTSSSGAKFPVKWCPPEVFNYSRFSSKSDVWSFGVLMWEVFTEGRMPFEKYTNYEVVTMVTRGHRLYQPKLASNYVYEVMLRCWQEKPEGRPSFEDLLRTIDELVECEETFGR
Procedure: To determine effects of BTK CTMs on TEC levels in cells, K562 cells were treated for four hours with CTMs at concentrations between 0.026-2000 nM. TEC levels in cell lysate was assessed by western blot.

[5] = 30 mg/kg PO daily, 1 day of dosing
[6] = 30 mg/kg PO daily, 14 days of dosing
[7] = 100 mg/kg PO daily, 1 day of dosing
[8] = 100 mg/kg PO daily, 14 days of dosing
[9] = 300 mg/kg PO daily, 1 day of dosing
[10] = 300 mg/kg PO daily, 14 days of dosing
[11] = oral dose 10 mg/kg, 24 h, splenocytes, HTRF
[12] = oral dose 30 mg/kg, 24 h, splenocytes, HTRF
[13] = 10 mg/kg, 10 mg/kg PO, 1 day of dosing
[14] = 10 mg/kg, 10 mg/kg PO, 14 days of dosing
[15] = 30 mg/kg, 30 mg/kg PO, 1 day of dosing
[16] = 30 mg/kg, 30 mg/kg PO, 14 days of dosing
[17] = 100 mg/kg, 100 mg/kg PO, 1 day of dosing
[18] = 100 mg/kg, 100 mg/kg PO, 14 days of dosing
[19] = 30 mg/kg, QD, 23 days of dosing
[20] = oral dose 30 mg/kg, 24 h, blood, flow cytometry
[21] = 10 mg/kg, QD, 23 days of dosing
[22] = 10 mg/kg, QD, 24 days of dosing
[23] = 30 mg/kg, QD, 24 days of dosing
[24] = 90 mg/kg, QD, 24 days of dosing

T2 sequence (P35991 whole entry): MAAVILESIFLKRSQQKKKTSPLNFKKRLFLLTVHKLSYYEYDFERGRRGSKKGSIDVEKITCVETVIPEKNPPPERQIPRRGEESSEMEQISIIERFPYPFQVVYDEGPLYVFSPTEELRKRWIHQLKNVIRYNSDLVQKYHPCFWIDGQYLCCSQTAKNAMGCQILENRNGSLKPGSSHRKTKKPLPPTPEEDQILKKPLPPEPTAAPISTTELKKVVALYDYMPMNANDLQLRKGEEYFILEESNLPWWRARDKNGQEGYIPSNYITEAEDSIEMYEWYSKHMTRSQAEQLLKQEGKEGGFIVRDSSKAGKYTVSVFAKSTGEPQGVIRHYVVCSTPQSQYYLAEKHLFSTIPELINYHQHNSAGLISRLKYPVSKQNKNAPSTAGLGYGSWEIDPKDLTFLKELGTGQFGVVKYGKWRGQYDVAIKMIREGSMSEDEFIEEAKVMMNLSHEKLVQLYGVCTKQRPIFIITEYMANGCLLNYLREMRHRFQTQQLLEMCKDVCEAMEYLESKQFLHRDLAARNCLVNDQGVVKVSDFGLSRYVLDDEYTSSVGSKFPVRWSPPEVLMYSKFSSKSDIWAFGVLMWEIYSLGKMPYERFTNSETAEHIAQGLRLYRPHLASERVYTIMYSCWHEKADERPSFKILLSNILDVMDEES
T1 sequence (Q9UKT9 whole entry): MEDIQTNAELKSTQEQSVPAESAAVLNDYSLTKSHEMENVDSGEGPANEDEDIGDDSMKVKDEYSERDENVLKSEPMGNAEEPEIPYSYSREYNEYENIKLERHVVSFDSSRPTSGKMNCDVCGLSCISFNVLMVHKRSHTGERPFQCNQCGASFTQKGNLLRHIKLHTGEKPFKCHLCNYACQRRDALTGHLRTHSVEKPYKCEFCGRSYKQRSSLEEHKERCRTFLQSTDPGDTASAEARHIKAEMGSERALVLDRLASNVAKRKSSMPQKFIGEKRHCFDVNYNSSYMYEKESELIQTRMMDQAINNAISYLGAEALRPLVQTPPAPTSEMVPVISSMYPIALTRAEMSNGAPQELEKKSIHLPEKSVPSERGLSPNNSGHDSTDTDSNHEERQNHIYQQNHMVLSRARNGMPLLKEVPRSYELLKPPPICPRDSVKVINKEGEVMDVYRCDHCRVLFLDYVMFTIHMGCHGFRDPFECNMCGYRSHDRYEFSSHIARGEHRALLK
T1 sequence (Q96SW2 whole entry): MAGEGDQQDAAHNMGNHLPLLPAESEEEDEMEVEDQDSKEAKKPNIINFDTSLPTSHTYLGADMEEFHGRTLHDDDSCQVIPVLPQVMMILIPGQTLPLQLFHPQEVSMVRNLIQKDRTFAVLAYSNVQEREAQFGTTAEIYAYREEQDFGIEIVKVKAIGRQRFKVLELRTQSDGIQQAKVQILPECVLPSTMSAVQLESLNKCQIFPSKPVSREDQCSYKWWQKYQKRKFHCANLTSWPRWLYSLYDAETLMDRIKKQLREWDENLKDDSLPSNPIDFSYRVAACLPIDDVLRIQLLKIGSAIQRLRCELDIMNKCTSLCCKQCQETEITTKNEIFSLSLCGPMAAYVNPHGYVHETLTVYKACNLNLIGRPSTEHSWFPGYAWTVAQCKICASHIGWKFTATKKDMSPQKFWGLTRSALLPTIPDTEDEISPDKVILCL
T1 sequence (Q16531 whole entry partner): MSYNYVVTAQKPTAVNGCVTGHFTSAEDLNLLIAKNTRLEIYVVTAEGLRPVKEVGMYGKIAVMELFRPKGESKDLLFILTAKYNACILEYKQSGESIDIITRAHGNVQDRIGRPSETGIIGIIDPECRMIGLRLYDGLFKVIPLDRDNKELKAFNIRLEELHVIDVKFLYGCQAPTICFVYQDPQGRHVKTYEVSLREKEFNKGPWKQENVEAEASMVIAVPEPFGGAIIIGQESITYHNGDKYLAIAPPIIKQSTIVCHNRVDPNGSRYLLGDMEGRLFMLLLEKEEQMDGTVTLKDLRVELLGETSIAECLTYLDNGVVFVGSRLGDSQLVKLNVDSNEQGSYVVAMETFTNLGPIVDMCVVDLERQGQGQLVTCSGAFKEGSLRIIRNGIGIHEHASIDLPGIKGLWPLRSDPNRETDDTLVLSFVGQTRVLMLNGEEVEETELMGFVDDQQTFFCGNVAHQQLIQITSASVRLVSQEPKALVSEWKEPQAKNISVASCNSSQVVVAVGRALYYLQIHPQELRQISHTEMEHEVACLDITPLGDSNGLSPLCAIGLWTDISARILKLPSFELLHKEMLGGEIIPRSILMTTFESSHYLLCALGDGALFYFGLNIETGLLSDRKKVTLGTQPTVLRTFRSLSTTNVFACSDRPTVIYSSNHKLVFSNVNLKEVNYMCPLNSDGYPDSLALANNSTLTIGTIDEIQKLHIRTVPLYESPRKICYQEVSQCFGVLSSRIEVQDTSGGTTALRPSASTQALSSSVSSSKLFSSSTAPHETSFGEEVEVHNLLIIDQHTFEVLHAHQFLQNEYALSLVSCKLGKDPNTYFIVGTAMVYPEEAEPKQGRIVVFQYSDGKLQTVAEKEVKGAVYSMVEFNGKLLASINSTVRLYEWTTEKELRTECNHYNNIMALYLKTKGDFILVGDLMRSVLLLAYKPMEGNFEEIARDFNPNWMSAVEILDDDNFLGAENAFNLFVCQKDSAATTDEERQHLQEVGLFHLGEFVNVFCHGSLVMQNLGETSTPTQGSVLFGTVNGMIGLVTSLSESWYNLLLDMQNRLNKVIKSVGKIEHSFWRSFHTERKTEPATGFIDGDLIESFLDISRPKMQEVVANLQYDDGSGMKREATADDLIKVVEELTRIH

SMILES	DC50 (Aiolos; Mino cells) [nM]	DC50 (Aiolos; Rec-1 cells) [nM]	% BTK Remaining in B cells (BTK [1]; [5]) [%]	% BTK Remaining in B cells (BTK [1]; [6]) [%]	% BTK Remaining in B cells (BTK [1]; [7]) [%]	% BTK Remaining in B cells (BTK [1]; [8]) [%]	% BTK Remaining in B cells (BTK [1]; [9]) [%]	% BTK Remaining in B cells (BTK [1]; [10]) [%]	% BTK Remaining (BTK [2]; [12]) [%]	Cmax [3, 13] [nM]	AUC [3, 14] [µM·h]	Cmax [3, 14] [nM]	Cmax [3, 15] [nM]	AUC [3, 16] [µM·h]	Cmax [3, 16] [nM]	AUC [3, 17] [µM·h]	Cmax [3, 18] [nM]	Tumor Growth Inhibition (relative to vehicle) [4, 19]	degradation of BTK compared with TEC (TEC kinase)	effects on TEC kinase levels (TEC kinase)	other results
CN1CCN([C@@H]2CCCN(c3cnc(C(N)=O)c(Nc4ccc(C5CCN(C[C@H]6CCN(c7ccc8c(c7)C(=O)N(C7CCC(=O)NC7=O)C8=O)C6)CC5)cc4)n3)C2)C1=O (stereo partly drawn) [Compound 44]	100	70	16	16	10	11	8	10	23	10.6	0.467	34	18	0.794	55.5	0.294	94.2	48% and 51% and 36%	more potent degradation of BTK than TEC	mild to moderate effects	% BTK Remaining (BTK [2]; dose 1(IV) mg/kg, 24 h, splenocytes, HTRF): 58%; % BTK Remaining (BTK [2]; oral dose 1 mg/kg, 6 h, splenocytes, HTRF): 58%; % BTK Remaining (BTK [2]; oral dose 3 mg/kg, 6 h, splenocytes, HTRF): 32%; % BTK Remaining (BTK [2]; oral dose 10 mg/kg, 6 h, splenocytes, HTRF): 11%; % BTK Remaining (BTK [2]; [11]): 34%; % BTK Remaining (BTK [2]; oral dose 30 mg/kg, 6 h, splenocytes, HTRF): 4%; % BTK Remaining (BTK [2]; oral dose 90 mg/kg, 6 h, splenocytes, HTRF): 4%; Tumor Growth Inhibition (relative to vehicle) ([4]; 5 mg/kg, BID, 23 days of dosing): 65%; Tumor Growth Inhibition (relative to vehicle) ([4]; 15 mg/kg, BID, 23 days of dosing): 62%; Tumor Growth Inhibition (relative to vehicle) ([4]; 30 mg/kg, BID, 23 days of dosing): 70% and 78%; Tumor Growth Inhibition (relative to vehicle) ([4]; 60 mg/kg, QD, 23 days of dosing): 70%
CN1CCN([C@@H]2CCCN(c3cnc(C(N)=O)c(Nc4ccc(C5CCN(CC6CCN(c7ccc8c(=O)n(C9CCC(=O)NC9=O)ccc8c7)CC6)CC5)cc4)n3)C2)C1=O (stereo partly drawn) [Compound 72]	–	–	–	–	–	–	–	–	20	–	–	–	–	–	–	–	–	–	more potent degradation of BTK than TEC	mild to moderate effects	–
CN1CCN([C@@H]2CCCN(c3cnc(C(N)=O)c(Nc4ccc(C5CCN(CC6CCN(c7ccc(-c8nn(C9CCC(=O)NC9=O)c(=O)n8C)cc7)CC6)CC5)cc4)n3)C2)C1=O (stereo partly drawn) [Compound 121]	–	–	–	–	–	–	–	–	33	–	–	–	–	–	–	–	–	–	–	–	% BTK Remaining (BTK [2]; oral dose 0.3 mg/kg, 24 h, blood, flow cytometry): 102%; % BTK Remaining (BTK [2]; oral dose 3 mg/kg, 24 h, blood, flow cytometry): 68%; % BTK Remaining (BTK [2]; [20]): 28%
CN1CCN([C@H]2CCCN(c3cnc(C(N)=O)c(Nc4ccc(C5CCN(CC6CCN(c7ccc(C(=O)NC8CCC(=O)NC8=O)nc7)CC6)CC5)cc4)n3)C2)C1=O (stereo partly drawn) [Compound 130]	> 2000	> 2000	11	6	3	2	2	<1	–	20	0.387	28	55	0.844	54	1.4	177	79%	more potent degradation of BTK than TEC	mild to moderate effects	IMiD activity (degradation of IMiD neo-substrates Ikaros and Aiolos) (Aiolos): not others; % BTK Remaining (BTK [2]; [20]): 5%; Tumor Growth Inhibition (relative to vehicle) [4, 21]: 58%; Tumor Growth Inhibition (relative to vehicle) [4, 22]: 90%; Tumor Growth Inhibition (relative to vehicle) [4, 23]: 100%; Tumor Growth Inhibition (relative to vehicle) [4, 24]: 100%
NC(=O)c1ncc(N2CCCCC2)nc1Nc1ccc(C2CCN(C[C@@H]3CCN(c4ccc5c(c4)C(=O)N(C4CCC(=O)NC4=O)C5=O)C3)CC2)cc1 (stereo partly drawn) [Compound 149]	87	81	11	8	10	5	6	2	8	42	0.763	49	51	1.48	88	0.714	159	29%	more potent degradation of BTK than TEC	mild to moderate effects	IMiD activity (degradation of IMiD neo-substrates Ikaros and Aiolos) (Aiolos): demonstrate IMiD activity; % BTK Remaining (BTK [2]; oral dose 10 mg/kg, 24 h, blood, flow cytometry): 27%; % BTK Remaining (BTK [2]; [11]): 21%; % BTK Remaining (BTK [2]; [20]): 11%; % BTK Remaining (BTK [2]; oral dose 90 mg/kg, 24 h, blood, flow cytometry): 1%; % BTK Remaining (BTK [2]; oral dose 90 mg/kg, 24 h, splenocytes, HTRF): 1%; Tumor Growth Inhibition (relative to vehicle) [4, 21]: 27%; Tumor Growth Inhibition (relative to vehicle) [4, 22]: 17%; Tumor Growth Inhibition (relative to vehicle) [4, 23]: 43%; Tumor Growth Inhibition (relative to vehicle) [4, 24]: 59%
